Converted amounts (≈) assume the structure as drawn. Like-named read-outs stand apart in the source and are kept apart here. Non-standard residues stand in square brackets, D forms with d. Residues, ends and D or L forms follow the SMILES beside them. *: point of attachment. Lauroyl = CCCCCCCCCCCC(=O)*; dOrn = NCCC[C@@H](N)C(=O)O
Experiments:
[1] = tested on: Staphylococcus aureus ATCC 29213; test: MIC, NCCLS M7-A6 broth microdilution, cation-adjusted Mueller Hinton broth (Table 9, no superscript); assay type: cell-based; settings: ATCC 29213
Procedure, shortened: (§1)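 Values come from a broth microdilution assay run in cation-adjusted Mueller Hinton broth with an inoculum of 5×10^5 to 1×10^6 CFU/milliliter, incubated overnight at 37° C and read as absence of visible turbidity.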

[2] = tested on: Salmonella dublin (Lane); test: MIC, NCCLS M7-A6 broth microdilution (Table 9, no superscript); assay type: cell-based
Procedure, shortened: as §1

[3] = tested on: Propionibacterium acnes ATCC 6919; assay type: cell-based
Procedure, shortened: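 MIC by non-standard broth microdilution in reinforced Clostridial broth, log-phase P. acnes inoculum at 5×10^5 to 1×10^6 CFU/mL. Plates were held anaerobically 48–72 h at 37° C; MIC was the lowest peptide concentration with no visible turbidity relative to the no-peptide control.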

[4] = tested on: P. acnes; test: Mouse skin assay, bactericidal activity on excised Balb/c skin; assay type: cell-based, Propionibacterium acnes; settings: Incubation time 120 min; P. acnes untreated 0.9 × 10^8 cfu/ml
[5] = tested on: E. coli K12 TOP10; settings: 3 log or greater reduction in bacterial growth over 16 hours
[6] = tested on: S. aureus (Rosenbach); test: Broth microdilution assay for MIC (20% TSB, 50 mM Na2CO3, 1 mM MgCl2), Table 4A; assay type: cell-based, Staphylococcus aureus; settings: 3 log or greater reduction in bacterial growth over 16 hours
Experimental: (§2) S. dublin (Lane), S. aureus (Rosenbach), P. acnes, ATCC 6919, E. coli K12 TOP10, and E. coli K12 55099 (protease neg.) bacterial strains were tested in the microbial inhibition assays described hereafter. The S. dublin (Lane), and S. aureus (Rosenbach) strains are available from ATCC (Staphylococcus aureus subsp. aureus Rosenbach (Number: 13150) and Salmonella choleraesuis serotype dublin (Number: 39184)). The strain of P. acnes was purchased from ATCC (strain #6919) (Manassas, Va.). The E. coli K12 strains TOP 10 and 55099 were purchased from Invitrogen (Carlsbad, Calif.) and ATCC respectively. HeLa cells were purchased from ATCC (CCL2). Tryptic soy broth (TSB), Brucella broth, reinforced Clostridial broth and agar were purchased from Becton & Dickinson (distributed by VWR, West Chester, Pa.). All plastic consumables were purchased from VWR (West Chester, Pa.). […]
(§3) The minimum inhibitory concentration (MIC) of peptide compositions for S. aureus, S. dublin and E. coli was determined in a broth microdilution assay. […] The MIC for each peptide for each microorganism was determined by three methods. The growth of bacteria was directly determined by measuring the absorption at 600 nm using a Versamax microplate reader (Molecular Devices). […] After incubation for 16 hours at 37° C. bacterial growth was evaluated and documented (Alpha Innotech gel documentation system).

[7] = tested on: Escherichia coli ATCC 25922; test: MIC, NCCLS M7-A6 broth microdilution (Table 9, no superscript); assay type: cell-based; settings: ATCC 25922
Procedure, shortened: as §1

[8] = tested on: Staphylococcus epidermidis ATCC 12228; test: as above; assay type: cell-based; settings: ATCC 12228
Procedure, shortened: as §1

[9] = tested on: Pseudomonas aeruginosa ATCC 27853; test: as above; assay type: cell-based; settings: ATCC 27853
Procedure, shortened: as §1

[10] = tested on: human red blood cells; assay type: cell-based; settings: red cells of human
Experimental: Hemoglobin-release assays with human red blood cells (RBC) were performed to determine the hemolytic activity of granulysin peptides. Human RBCs (San Diego Blood Bank, San Diego, Calif.) were washed three times in PBS buffer (8 mM Na2HPO4, 1.5 mM KH2PO4, 140 mM NaCl and 2.7 mM KCl, pH 7.4), resuspended in PBS to the concentration of 5% (v/v). The RBC were then exposed to different peptide compositions at various concentrations (100-6.25 micromolar) and incubated at 37° C. for 60 minutes in a total volume of 120 microliters. Every experiment included a negative control without peptide and maximum control treated with 5% TX-100 for complete hemoglobin release. Samples were centrifuged for 1 minute at 13,000 g to remove debris and intact cells. The hemoglobin-containing supernatant was removed and transferred to a microwell plate. Hemoglobin release was quantified at A540 using a Versamax plate reader (Molecular Devices). The degree of hemolysis is expressed as percentage of hemolysis compared to the […], using the following formula: % hemolysis=(sample−neg. control)/(max. control−neg. control)×100.

[11] = tested on: Propionibacterium acnes ATCC 6919; test: MIC, agar dilution method NCCLS M11-A6, Brucella agar, anaerobic (Table 9, superscript c); assay type: cell-based; settings: letter c: agar dilution NCCLS M11-A6, Brucella agar, anaerobic
Procedure, shortened: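 MIC taken as the lowest peptide level giving no colonies on the plate. Plates were inoculated to 1.5×10^8 CFU/milliliter, then kept anaerobically at 37° C. for 48-96 hours; method follows NCCLS M11-A6.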

[12] = tested on: Candida albicans ATCC 18804; test: MIC in yeasts, NCCLS M27-A2 broth microdilution, RPMI 1640 (Table 9, letter e); assay type: cell-based; settings: ATCC 18804
Procedure, shortened: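 Plates incubated 24 to 48 hours at 37° C, with yeast seeded at 0.5×10^3–2.5×10^3 CFU/milliliter final in RPMI 1640 (glutamine, phenol red indicator). MIC was read as the lowest peptide concentration showing no visible growth.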

[13] = tested on: E. coli K12 55099 (protease neg.); settings: 3 log or greater reduction in bacterial growth over 16 hours
[14] = tested on: S. dublin (Lane); test: Broth microdilution assay for MIC, Table 4A; assay type: cell-based, Salmonella dublin; settings: 3 log or greater reduction in bacterial growth over 16 hours
Experimental: as §2, §3

[15] = tested on: Staphylococcus epidermidis ATCC 12228; settings: ATCC 12228, pH 7.4
[16] = tested on: Pseudomonas aeruginosa ATCC 27853; settings: ATCC 27853, pH 7.4

Row | Structure (SMILES) | MIC S. aureus [1] | MIC S. dublin [2] | MIC P. acnes [3] | P. acnes recovered from mouse skin [4] | Minimum inhibitory concentration (MIC) E. coli Top10 [5] | Minimum inhibitory concentration (MIC) S. aureus [6] | MIC E. coli [7] | MIC S. epidermidis [8] | MIC P. aeruginosa [9] | Hemolytic effect on human red blood cells ([10]; 6.25 Micromolar) | Hemolytic effect on human red blood cells ([10]; 12.5 Micromolar) | Hemolytic effect on human red blood cells ([10]; 25 Micromolar) | Hemolytic effect on human red blood cells ([10]; 50 Micromolar) | Hemolytic effect on human red blood cells ([10]; 100 Micromolar) | MIC P. acnes [11] | MIC C. albicans [12] | Minimum inhibitory concentration (MIC) E. coli 55099 [13] | Minimum inhibitory concentration (MIC) S. dublin [14] | MIC S. epidermidis [15] | MIC P. aeruginosa [16]
1 | CSCC[C@@H](NC(=O)[C@@H](Cc1ccccc1)NC(=O)[C@@H](CC(N)=O)NC(=O)[C@@H](CCCNC(=N)N)NC(=O)[C@@H](CO)NC(=O)[C@@H](Cc1c[nH]c2ccccc12)NC(=O)[C@@H](CC(=O)O)NC(=O)[C@@H](CCCNC(=N)N)NC(=O)[C@@H](Cc1c[nH]c2ccccc12)NC(=O)[C@@H](CCCNC(=N)N)NC(=O)[C@@H](CO)NC(=O)[C@@H](CCCNC(=N)N)NC(=O)CNC(=O)[C@H](NC(=O)[C@@H](CCCNC(=N)N)NC(=O)[C@@H](CO)NC(=O)[C@H](NC(=O)[C@@H](CCCNC(=N)N)NC(=O)[C@H](NC(C)=O)[C@H](C)O)C(C)C)[C@H](C)O)C(=O)N[C@H](CCCNC(=N)N)C(=O)N[C@H](CCCN)C(=O)N[C@H](CCCN)C(=O)N[C@H](CCCN)C(=O)N[C@H](CCCN)C(=O)N[C@H](CCCN)C(=O)N[C@H](CCCN)C(=O)N[C@H](CCCN)C(=O)N[C@H](CCCN)C(N)=O [Peptide 35, Ac-trvsrtgrsrwrdwsrnfmroooooooo-NH2] (Ac-[dT][dR][dV][dS][dR][dT]G[dR][dS][dR][dW][dR][dD][dW][dS][dR][dN][dF][dM][dR][dOrn][dOrn][dOrn][dOrn][dOrn][dOrn][dOrn][dOrn]-NH2) | >64 µg/mL | >64 µg/mL | 6 µg·days/mL | 4.5 × 10^4 cfu/ml |  |  |  |  |  |  |  |  |  |  |  |  |  |  |  | 
2 | CCCCCCCCCCCC(=O)N[C@H](C(=O)N[C@@H](CCCNC(=N)N)C(=O)N[C@H](C(=O)N[C@@H](CO)C(=O)N[C@@H](CCCNC(=N)N)C(=O)N[C@H](C(=O)NCC(=O)N[C@@H](CCCNC(=N)N)C(=O)N[C@@H](CO)C(=O)N[C@@H](CCCNC(=N)N)C(=O)N[C@@H](Cc1c[nH]c2ccccc12)C(=O)N[C@@H](CCCNC(=N)N)C(=O)N[C@@H](CC(=O)O)C(=O)N[C@@H](Cc1c[nH]c2ccccc12)C(=O)N[C@@H](CO)C(=O)N[C@@H](CCCNC(=N)N)C(=O)N[C@@H](CC(N)=O)C(=O)N[C@@H](Cc1ccccc1)C(=O)N[C@@H](CCSC)C(=O)N[C@@H](CCCNC(=N)N)C(=O)N[C@@H](CCCCN)C(N)=O)[C@@H](C)O)C(C)C)[C@@H](C)O [Peptide 64] (Lauroyl-TRVSRTGRSRWRDWSRNFMRK-NH2) | 8 µg/mL (≈ 2.74 µM) | 16 µg/mL (≈ 5.48 µM) |  |  | 2 µM (≈ 5.84 µg/mL) | 2 µM (≈ 5.84 µg/mL) | 64 µg/mL (≈ 21.9 µM) | 1 µg/mL (≈ 0.342 µM) | >64 µg/mL | 14% | 15% | 29% | 46% | 81% | >64c ug/mL | 32e ug/mL | 1 µM (≈ 2.92 µg/mL) | 8 µM (≈ 23.4 µg/mL) |  | 
3 | CSCC[C@@H](NC(=O)[C@@H](Cc1ccccc1)NC(=O)[C@@H](CC(N)=O)NC(=O)[C@@H](CCCNC(=N)N)NC(=O)[C@@H](C)NC(=O)[C@H](NC(=O)[C@@H](CC(=O)O)NC(=O)[C@@H](CCCNC(=N)N)NC(=O)[C@@H](Cc1c[nH]c2ccccc12)NC(=O)[C@@H](CCCNC(=N)N)NC(=O)[C@@H](CO)NC(=O)[C@@H](CCCNC(=N)N)NC(C)=O)C(C)C)C(=O)N[C@H](CCCNC(=N)N)C(N)=O [Peptide 96, Ac-rsrwrdvarnfmr-NH2] (Ac-[dR][dS][dR][dW][dR][dD][dV][dA][dR][dN][dF][dM][dR]-NH2) | >64 µg/mL | >64 µg/mL | 12.5 µg·days/mL |  |  |  |  |  |  |  |  |  |  |  |  | 8e ug/mL |  |  | 12.5b ug/mL | 50b ug/mL

From patent US20050282755A1, “Compositions having antimicrobial activity and uses thereof” (priority 2004, published 2005)
